This is an account of results in article PMC9607164, “Rational Design, Synthesis and Biological Evaluation of Novel Pyrazoline-Based Antiproliferative Agents in MCF-7 Cancer Cells” (Pharmaceuticals, 2022).

Like-named read-outs stand apart in the source and are kept apart here.

In series [1] the test system is MCF-10A normal breast cells. Put plainly: MTT cytotoxicity assay on MCF-10A. In kind it is cell-based. As to conditions: Homo sapiens, 48 h, n = 3, read-out: IC50 ± SD, MCF-10A. How it is done: (§1) Both breast cancer (MCF-7) and normal breast (MCF-10A) cells were purchased from National Research Institute, Egypt, and maintained in complete media of RPMI-1640 medium L-Glutamine (Lonza Verviers SPRL, Belgium, cat#12-604F). Cells were incubated following standard tissue culture work. Cell viability was measured 48 h later, utilizing MTT colorimetric assay (Promega, Madison, WI, USA). Absorbance was consequently assessed (at 570 nm) using an ELISA microplate reader (BIO-RAD, model iMark, Tokyo, Japan). Using GraphPad Prism 7, the IC50 values were determined, and the viability at each concentration was determined in comparison to the control.

The test system of the next series is MCF-7 cancer cells. Description: MTT cytotoxicity assay on MCF-7. Type of series: cell-based. As to conditions: MTT assay, 48 h, n = 3, NA: Non-Active, read-out: IC50 ± SD, MCF-7. How it is done: as §1
On the technique in general: Tetrazolium dyes change colour on reduction, which living cells bring about.

The next series addresses T1, EGFR Kinase (Homo sapiens, UniProt P00533).
T1 construct: purchased BPS Bioscience 40321
Put plainly: EGFR Kinase Assay Kit (BPS Bioscience). In kind it is biochemical. As to conditions: mean ± SD of three replicates, five concentrations. How it is done:
(§2) Compounds’ autophosphorylation percentage inhibition was computed according to the following equation: […] , then IC50 values were calculated using GraphPad prism software.

The next series has as its target T2, HER2 Kinase (Homo sapiens, UniProt P04626).
T2 construct: purchased BPS Bioscience 40721
Description: HER2 Kinase Assay Kit (BPS Bioscience). In kind it is biochemical. As to conditions: mean ± SD of three replicates, five concentrations. How it is done:
as §2

In series [2] the test system is breast cancer cells MCF-7. The conditions noted are these: cited from earlier work.
Series [3] is classed as in vivo. The conditions noted are these: 10 mg/kg BW, IP; MCF-7 control 32.28 g, normal 24.5 g. From the text:
In vivo experiments for lethal dose (LD50), experimental design, tumor mass, blood parameters, histopathological examinations were accomplished as previously described. After inoculating the tumor cells, masses of the solid tumor started to appear ten days later. […]. Animals from each group were sacrificed, and their blood was drawn to measure hemoglobin (Hb), red blood cell (RBC), white blood cell (WBC), and liver enzymes (ALT, AST, albumin, and total protein) levels.

[4] abbreviates: reported pyrazoline-based agents.

T1 sequence (P00533 25-1210): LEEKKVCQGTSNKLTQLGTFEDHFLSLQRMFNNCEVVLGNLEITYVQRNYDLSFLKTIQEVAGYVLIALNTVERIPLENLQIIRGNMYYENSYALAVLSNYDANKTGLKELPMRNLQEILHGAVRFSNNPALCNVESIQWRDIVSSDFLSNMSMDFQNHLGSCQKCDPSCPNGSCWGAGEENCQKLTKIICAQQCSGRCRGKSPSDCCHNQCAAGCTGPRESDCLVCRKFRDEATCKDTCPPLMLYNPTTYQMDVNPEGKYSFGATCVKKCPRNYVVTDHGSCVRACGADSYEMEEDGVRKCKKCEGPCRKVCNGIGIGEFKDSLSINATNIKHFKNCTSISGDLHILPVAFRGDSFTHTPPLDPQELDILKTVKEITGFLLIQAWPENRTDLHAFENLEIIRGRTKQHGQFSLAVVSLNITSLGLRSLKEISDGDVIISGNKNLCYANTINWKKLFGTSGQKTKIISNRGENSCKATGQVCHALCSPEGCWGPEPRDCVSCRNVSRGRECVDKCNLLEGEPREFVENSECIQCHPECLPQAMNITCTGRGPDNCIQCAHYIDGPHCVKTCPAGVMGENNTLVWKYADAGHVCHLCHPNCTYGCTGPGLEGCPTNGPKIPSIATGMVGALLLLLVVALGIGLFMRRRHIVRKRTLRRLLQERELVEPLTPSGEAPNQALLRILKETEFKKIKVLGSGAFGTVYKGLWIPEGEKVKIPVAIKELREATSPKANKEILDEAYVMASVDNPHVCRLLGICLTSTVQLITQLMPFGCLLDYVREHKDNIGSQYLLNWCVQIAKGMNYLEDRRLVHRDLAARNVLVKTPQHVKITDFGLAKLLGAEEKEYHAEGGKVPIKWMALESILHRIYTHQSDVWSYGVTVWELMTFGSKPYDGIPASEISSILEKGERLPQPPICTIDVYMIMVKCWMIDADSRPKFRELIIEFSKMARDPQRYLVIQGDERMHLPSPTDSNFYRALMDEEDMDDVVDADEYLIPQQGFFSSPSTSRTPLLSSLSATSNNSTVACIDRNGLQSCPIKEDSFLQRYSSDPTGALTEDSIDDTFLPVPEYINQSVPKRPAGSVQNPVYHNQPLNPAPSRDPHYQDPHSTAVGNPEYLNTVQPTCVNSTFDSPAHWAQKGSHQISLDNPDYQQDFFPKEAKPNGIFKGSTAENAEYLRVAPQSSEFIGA
T2 sequence (P04626 23-1255): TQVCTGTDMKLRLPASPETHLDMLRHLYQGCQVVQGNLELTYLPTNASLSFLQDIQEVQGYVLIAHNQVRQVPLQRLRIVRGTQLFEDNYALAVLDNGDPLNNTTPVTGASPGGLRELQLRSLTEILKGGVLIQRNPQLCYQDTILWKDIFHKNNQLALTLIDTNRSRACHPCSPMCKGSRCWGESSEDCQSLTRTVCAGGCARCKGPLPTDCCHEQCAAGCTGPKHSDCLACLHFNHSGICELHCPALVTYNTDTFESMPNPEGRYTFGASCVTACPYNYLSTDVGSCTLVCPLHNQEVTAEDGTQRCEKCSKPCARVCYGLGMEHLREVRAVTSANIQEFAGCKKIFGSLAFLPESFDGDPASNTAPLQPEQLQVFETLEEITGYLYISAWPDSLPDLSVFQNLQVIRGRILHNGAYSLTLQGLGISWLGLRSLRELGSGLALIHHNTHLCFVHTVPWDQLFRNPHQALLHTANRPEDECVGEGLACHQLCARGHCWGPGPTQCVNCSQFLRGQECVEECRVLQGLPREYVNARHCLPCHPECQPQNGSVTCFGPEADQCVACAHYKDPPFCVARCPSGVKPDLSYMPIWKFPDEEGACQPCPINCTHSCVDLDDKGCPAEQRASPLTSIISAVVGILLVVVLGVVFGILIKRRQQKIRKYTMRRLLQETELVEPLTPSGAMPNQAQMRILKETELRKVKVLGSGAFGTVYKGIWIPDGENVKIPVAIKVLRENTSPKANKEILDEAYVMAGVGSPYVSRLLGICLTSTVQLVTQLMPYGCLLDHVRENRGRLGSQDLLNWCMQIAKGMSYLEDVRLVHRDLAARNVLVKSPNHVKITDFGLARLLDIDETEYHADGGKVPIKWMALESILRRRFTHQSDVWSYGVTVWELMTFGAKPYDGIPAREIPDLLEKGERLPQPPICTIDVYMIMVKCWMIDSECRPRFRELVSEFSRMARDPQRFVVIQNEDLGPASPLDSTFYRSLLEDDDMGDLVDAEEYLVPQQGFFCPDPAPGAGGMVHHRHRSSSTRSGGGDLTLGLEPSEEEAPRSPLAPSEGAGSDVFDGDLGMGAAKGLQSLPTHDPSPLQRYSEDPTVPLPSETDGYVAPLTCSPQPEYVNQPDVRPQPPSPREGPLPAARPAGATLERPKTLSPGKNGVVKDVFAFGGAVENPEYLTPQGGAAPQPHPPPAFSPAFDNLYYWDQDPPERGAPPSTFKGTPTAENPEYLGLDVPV

By IC50 is commonly meant the concentration that gives 50% inhibition. The term melting point denotes the temperature of the solid-liquid transition. `COc1ccc(C2=NN(C(N)=S)C(c3ccccc3)C2)cc1OC` (stereo not drawn) [Compound 3a, 3-(3,4-Dimethoxyphenyl)-5-phenyl-4,5-dihydro-1H-pyrazole-1-carbothioamide] showed a melting point of 188 to 190 °C. Moreover, in series [1], the concentration for half-maximal inhibition (IC50) was determined as 36.5 ± 1.15 µM.

Consider `COc1ccc(C2CC(c3ccc(OC)c(OC)c3)=NN2C(N)=S)cc1` (stereo not drawn) [Compound 3b, 3-(3,4-Dimethoxyphenyl)-5-(4-methoxyphenyl)-4,5-dihydro-1H-pyrazole-1-carbothioamide], for which the melting point is 221 to 223 °C. Also, the IC50 in the series with MCF-7 cancer cells (Homo sapiens, MCF7, 48 h) worked out at 23.6 ± 0.72 µM. The IC50 in series [1] was 34.8 ± 1.35 µM.

The compound `COc1ccc(C2=NN(C(N)=S)C(c3ccc(Cl)cc3)C2)cc1OC` (stereo not drawn) [Compound 3c, 5-(4-Chlorophenyl)-3-(3,4-dimethoxyphenyl)-4,5-dihydro-1H-pyrazole-1-carbothioamide] had a melting point of 230 to 232 °C. Besides, the half-maximal inhibitory concentration (IC50) with MCF-7 cancer cells (Homo sapiens, MCF7, 48 h) turned out to be 11.1 µM. The half-inhibitory concentration (IC50) in the series with MCF-7 cancer cells amounted to 11.2 ± 0.54 µM. In series [1], the IC50 is not below 50 µM. For the same compound, 0.067 ± 0.009 µM corresponded to half-maximal inhibition on EGFR Kinase (IC50). This compound also yielded a half-maximal inhibitory concentration (IC50) against HER2 Kinase of 0.07 ± 0.018 µM.

Compound `COc1ccc(C2=NN(c3nc(-c4ccccc4)cs3)C(c3ccccc3)C2)cc1OC` (stereo not drawn) [Compound 6a, 2-(3-(3,4-Dimethoxyphenyl)-5-phenyl-4,5-dihydro-1H-pyrazol-1-yl)-4-phenylthiazole] returned a melting point of 202 to 205 °C. In addition, in series [1], the IC50 was not below 50 µM.

As to `COc1ccc(C2=NN(c3nc(-c4ccc(C)cc4)cs3)C(c3ccccc3)C2)cc1OC` (stereo not drawn) [Compound 6b, 2-(3-(3,4-Dimethoxyphenyl)-5-phenyl-4,5-dihydro-1H-pyrazol-1-yl)-4-(p-tolyl)thiazole], the melting point fell in the range of 210 to 215 °C. Also, the concentration for half-maximal inhibition (IC50) with MCF-7 cancer cells (Homo sapiens, MCF7, 48 h) is 13.4 ± 0.98 µM. Further, in series [1], the IC50 was not below 50 µM.

In turn, `COc1ccc(C2=NN(c3nc(-c4ccc(F)cc4)cs3)C(c3ccccc3)C2)cc1OC` (stereo not drawn) [Compound 6c, 2-(3-(3,4-Dimethoxyphenyl)-5-phenyl-4,5-dihydro-1H-pyrazol-1-yl)-4-(4-fluorophenyl)thiazole] showed a melting point of 135 to 140 °C. Also, the IC50 in the series with MCF-7 cancer cells (Homo sapiens, MCF7, 48 h) was 18.7 ± 0.84 µM. Further, the 50% inhibitory concentration (IC50) in series [1] is not below 50 µM.

With `COc1ccc(C2=NN(c3nc(-c4ccc(Cl)cc4)cs3)C(c3ccccc3)C2)cc1OC` (stereo not drawn) [Compound 6d, 4-(4-Chlorophenyl)-2-(3-(3,4-dimethoxyphenyl)-5-phenyl-4,5-dihydro-1H-pyrazol-1-yl)thiazole], the melting point lay in the range of 195 to 198 °C. Further, in series [1], the IC50 was determined as 45.2 ± 1.24 µM.

`COc1ccc(C2CC(c3ccc(OC)c(OC)c3)=NN2c2nc(-c3ccc(C)cc3)cs2)cc1` (stereo not drawn) [Compound 6f, 2-(3-(3,4-Dimethoxyphenyl)-5-(4-methoxyphenyl)-4,5-dihydro-1H-pyrazol-1-yl)-4-(p-tolyl)thiazole] yielded a melting point of 150 to 152 °C. Moreover, in the series on MCF-7 cancer cells (Homo sapiens, MCF7, 48 h), the IC50 is 11.1 ± 0.85 µM. For the same compound, the half-maximal inhibitory concentration (IC50) in series [1] worked out at 35.4 ± 1.84 µM. At EGFR Kinase, this compound had an IC50 of 0.23 ± 0.024 µM. Further, half-maximal inhibition against HER2 Kinase (IC50) was put at 0.12 ± 0.025 µM.

Regarding `COc1ccc(C2CC(c3ccc(OC)c(OC)c3)=NN2c2nc(-c3ccc(F)cc3)cs2)cc1` (stereo not drawn) [Compound 6g, 2-(3-(3,4-Dimethoxyphenyl)-5-(4-methoxyphenyl)-4,5-dihydro-1H-pyrazol-1-yl)-4-(4-fluorophenyl)thiazole], the melting point fell in the range of 140 to 143 °C. Moreover, the IC50 with MCF-7 cancer cells (Homo sapiens, MCF7, 48 h) is 15.4 ± 0.79 µM. Also, the IC50 in series [1] is 24.5 ± 1.01 µM.

Compound `COc1ccc(C2CC(c3ccc(OC)c(OC)c3)=NN2c2nc(-c3ccc(Cl)cc3)cs2)cc1` (stereo not drawn) [Compound 6h, 4-(4-Chlorophenyl)-2-(3-(3,4-dimethoxyphenyl)-5-(4-methoxyphenyl)-4,5-dihydro-1H-pyrazol-1-yl)thiazole] showed a melting point of 149 to 151 °C. Besides, the IC50 in the series with MCF-7 cancer cells (Homo sapiens, MCF7, 48 h) stood at 35.2 ± 1.27 µM. Further, the half-inhibitory concentration (IC50) in series [1] was found to be 26.5 ± 1.59 µM.

Consider `COc1ccc(C2=NN(c3nc(-c4ccccc4)cs3)C(c3ccc(Cl)cc3)C2)cc1OC` (stereo not drawn) [Compound 6i, 2-(5-(4-Chlorophenyl)-3-(3,4-dimethoxyphenyl)-4,5-dihydro-1H-pyrazol-1-yl)-4-phenylthiazole], for which the melting point lay in the range of 208 to 210 °C. Besides, the IC50 in the series with MCF-7 cancer cells (Homo sapiens, MCF7, 48 h) is 45.4 ± 1.87 µM. In addition, in series [1], the 50% inhibitory concentration (IC50) was determined as 15.8 ± 1.08 µM.

In the case of `COc1ccc(C2=NN(c3nc(-c4ccc(C)cc4)cs3)C(c3ccc(Cl)cc3)C2)cc1OC` (stereo not drawn) [Compound 6j, 2-(5-(4-Chlorophenyl)-3-(3,4-dimethoxyphenyl)-4,5-dihydro-1H-pyrazol-1-yl)-4-(p-tolyl)thiazole], the melting point lay in the range of 189 to 191 °C. Also, the IC50 in series [1] was not below 50 µM.

As for `COc1ccc(C2=NN(c3nc(-c4ccc(Cl)cc4)cs3)C(c3ccc(Cl)cc3)C2)cc1OC` (stereo not drawn) [Compound 6l, 4-(4-Chlorophenyl)-2-(5-(4-chlorophenyl)-3-(3,4-dimethoxyphenyl)-4,5-dihydro-1H-pyrazol-1-yl)thiazole], the melting point lay in the range of 195 to 197 °C. Also, the IC50 with MCF-7 cancer cells (Homo sapiens, MCF7, 48 h) was determined as 17.6 ± 0.97 µM. Further, in series [1], the IC50 was 35.7 ± 1.85 µM.

Compound `COc1ccc(C2=NN(c3nc(C)c(C(C)=O)s3)C(c3ccccc3)C2)cc1OC` (stereo not drawn) [Compound 9a, 1-(2-(3-(3,4-Dimethoxyphenyl)-5-phenyl-4,5-dihydro-1H-pyrazol-1-yl)-4-methylthiazol-5-yl)ethan-1-one] gave a melting point of 235 to 238 °C. The 50% inhibitory concentration (IC50) with MCF-7 cancer cells (Homo sapiens, MCF7, 48 h) came to 34.2 ± 1.68 µM. Besides, the concentration for half-maximal inhibition (IC50) in series [1] amounted to 18.9 ± 1.09 µM.

`COc1ccc(C2CC(c3ccc(OC)c(OC)c3)=NN2c2nc(C)c(C(C)=O)s2)cc1` (stereo not drawn) [Compound 9b, 1-(2-(3-(3,4-Dimethoxyphenyl)-5-(4-methoxyphenyl)-4,5-dihydro-1H-pyrazol-1-yl)-4-methylthiazol-5-yl)ethan-1-one] had a melting point of 213 to 215 °C. In addition, the 50% inhibitory concentration (IC50) in the series with MCF-7 cancer cells (Homo sapiens, MCF7, 48 h) was found to be 31.7 ± 1.96 µM. In series [1], the IC50 was 26.3 ± 1.07 µM.

For `COc1ccc(C2=NN(c3nc(C)c(C(C)=O)s3)C(c3ccc(Cl)cc3)C2)cc1OC` (stereo not drawn) [Compound 9c, 1-(2-(5-(4-Chlorophenyl)-3-(3,4-dimethoxyphenyl)-4,5-dihydro-1H-pyrazol-1-yl)-4-methylthiazol-5-yl)ethan-1-one], the melting point was in the range of 215 to 218 °C. Moreover, the concentration for half-maximal inhibition (IC50) in series [1] is not below 50 µM.

As for `CCOC(=O)c1sc(N2N=C(c3ccc(OC)c(OC)c3)CC2c2ccccc2)nc1C` (stereo not drawn) [Compound 9d, Ethyl 2-(3-(3,4-Dimethoxyphenyl)-5-phenyl-4,5-dihydro-1H-pyrazol-1-yl)-4-methylthiazole-5-carboxylate], the melting point was 215 to 218 °C. Also, in series [1], the IC50 turned out to be 24.3 ± 1.39 µM.

Take `CCOC(=O)c1sc(N2N=C(c3ccc(OC)c(OC)c3)CC2c2ccc(OC)cc2)nc1C` (stereo not drawn) [Compound 9e, Ethyl 2-(3-(3,4-Dimethoxyphenyl)-5-(4-methoxyphenyl)-4,5-dihydro-1H-pyrazol-1-yl)-4-methylthiazole-5-carboxylate]: the melting point lay within 169 to 171 °C. In addition, the IC50 with MCF-7 cancer cells (Homo sapiens, MCF7, 48 h) was 18.9 ± 1.03 µM. For the same compound, the IC50 in series [1] is 43.6 ± 1.85 µM.

Consider `CCOC(=O)c1sc(N2N=C(c3ccc(OC)c(OC)c3)CC2c2ccc(Cl)cc2)nc1C` (stereo not drawn) [Compound 9f, Ethyl 2-(5-(4-Chlorophenyl)-3-(3,4-dimethoxyphenyl)-4,5-dihydro-1H-pyrazol-1-yl)-4-methylthiazole-5-carboxylate], for which the melting point fell in the range of 197 to 200 °C. The half-inhibitory concentration (IC50) in the series with MCF-7 cancer cells (Homo sapiens, MCF7, 48 h) turned out to be 8.35 ± 0.29 µM. Moreover, the IC50 in series [1] was not below 50 µM. On EGFR Kinase, the IC50 amounted to 0.051 ± 0.003 µM. In addition, inhibition against HER2 Kinase was half-maximal at 0.14 ± 0.006 µM (IC50).

Take `Cc1nc(Nc2ncc(C(=O)Nc3c(C)cccc3Cl)s2)cc(N2CCN(CCO)CC2)n1` [Dasatinib]: the “MCF-7 (measure not named)” value in series [2] (Figure 2, reported agent) was 17.03 µM.

With `COc1ccc2ccc(=O)oc2c1C1=NN(S(=O)(=O)c2ccc(C)cc2)C(c2ccccc2)C1` (stereo not drawn) [III], the IC50 in series [2] (setting [4]) was 34.1 µM.

With `O=C1CCC(=O)N1CC(=O)N1N=C(c2ccccc2)CC1c1ccccc1` (stereo not drawn) [II], in series [2] (setting [4]), the IC50 is 0.42 µM.

By GI50 is commonly meant the concentration giving 50% growth inhibition. As to `CC(=O)N1N=C(c2ccc(OC3OC4OC5(C)CCC6C(C)CCC(C3C)C46OO5)cc2)CC1c1ccccc1` (stereo not drawn) [I], the 50% growth inhibitory concentration (GI50) in series [2] (reported pyrazoline-based agent) was 0.13 µM.

`CS(=O)(=O)CCNCc1ccc(-c2ccc3ncnc(Nc4ccc(OCc5cccc(F)c5)c(Cl)c4)c3c2)o1` [Lapatinib, reference compound]: the IC50 is 7.45 µM with MCF-7 cancer cells (Homo sapiens, MCF7, 48 h) and not below 50 µM in series [1]. In series [3], this compound displayed a mice weight of 27.35 g.

Take `O=C1c2ccccc2C(=O)N1CCc1csc(N(/N=C/c2cc(Cl)cc(Cl)c2)C(=O)CCl)n1` [V]: in series [2] (reported thiazole-based agent), the 50% inhibitory concentration (IC50) is 9.06 µM.
